How the values were obtained:
[1] = test system: acute respiratory infections; experiment: Prophylaxis of respiratory infection in athletes in training, intranasal L-Glu-L-Trp; type: in vivo, human; details: for B-Lymphocytes / B-Lymphocytes % Normal Value / B-Lymphocytes (%) / Blasts w/Con-A / Blasts w/PHA / C3 / Eosinophils / Eosinophils (%) / Eosinophils, % Normal Value / Granulocyte Cationic Proteins / IgA / IgA % Normal Value / IgG / IgG % Normal Value / IgM / IgM % Normal Value / Leukocytes / Leukocytes % Normal Value / Leukocytes, Ratio Post-Treat/Pre-Treat Value / Lymphocytes / Lymphocytes % Normal Value / Lymphocytes, % / Monocytes / Monocytes, % / Monocytes, % Normal Value / Neutrophils / Neutrophils, % / Neutrophils, % Normal Value / Phagocytosis (yeast) / Salivary IgM / Salivary Lysozyme / Salivary Secretory IgA / Serum Lysozyme / Serum β-Lysin / T-Lymphocytes / T-Lymphocytes % Normal Value / T-Lymphocytes (%) / T-helper (CD4+) / T-helper (CD4+), % / T-helper (CD4+), % Normal Value / T-suppressor (CD8+) / T-suppressor (CD8+), % / T-suppressor (CD8+), % Normal Value / Total Salivary IgA: After L-Glu-L-Trp
[2] = Ophthalmic diseases, parabulbar or conjunctival instillation; type: in vivo, human
Experimental: Forty one patients (41; 17 men and 24 women; ranging in age from 17 to 68 years) with various eye diseases of infectious and non-infectious origin were treated with L-Glu-L-Trp. Patients having the following infectious, and non-infectious, ophthalmic diseases were entered into the trial: a) nonviral conjunctivitis, keratitis, chronic uveitis, persistent sties, and, focal chorioretinitis; and, b) retinal pigment dystrophy, Grenblad-Stranberg syndrome, and maculophathy, respectively. Five patients were Class II invalids due to vision impairment, 4 were Class III, and 32 were impaired but not invalid. […] L-Glu-L-Trp was administered daily in a single 0.1 mL (10 μg) dose by the parabulbar route (Group 1; n=21), or alternatively one drop of the dipeptide solution (5 μg) was delivered into the conjunctival cavity twice daily on each of 5 consecutive days (Group 2; n=20). Thirty six patients undergoing conventional therapy served as a control group (Group 3; n=36).
Clinical diagnoses of patients entered into Group 1 were as follows: 4 subjects had diagnosed adenoviral conjunctivitis; 2 subjects, recurring eyelid sties; 3 subjects, chronic serous-plastic uveitis; 3 subjects, central chorioretinitis; 5 subjects, central retinal dystrophy in both eyes; 4 subjects, pigment degeneration of the retina.
Clinical diagnoses of patients entered into Group 2 were as follows: namely, 7 subjects had diagnosed chronic serous-plastic uveitis, and 13 subjects adenoviral conjunctivitis.
Vision was assessed using standard measurements: i.e., field of vision, visual acuity, electrophysiological indices. Ophthalmascopic examination was used to evaluate and score corneal epithelial integrity, extent of edema and infiltration of the cornea (all strata), uveitis, retinal inflammation (edema, focal and peripheral changes, exudation, hemorrhage, plasmohemorrhagia), and expansion in the vitreous body. Immune parameters in peripheral blood were also assessed. Following treatment, the trial subjects were followed for not less than 12 months.

L-Glu-L-Trp
B-Lymphocytes ([1]; Athletes): 0.29 ± 0.02 ×10^9/L
B-Lymphocytes % Normal Value ([1]; Athletes): (74%)
B-Lymphocytes (%) ([1]; Athletes): 13.6 ± 0.9 %
Blasts w/Con-A ([1]; Athletes): 53.4 ± 3.9%
Blasts w/PHA ([1]; Athletes): 42.5 ± 2.5 %
C3 ([1]; Athletes): 0.8 ± 0.02 g/L
Eosinophils ([1]; Athletes): 0.23 ± 0.03 ×10^9/L
Eosinophils (%) ([1]; Athletes): 4.2 ± 0.6%
Eosinophils, % Normal Value ([1]; Athletes): (96%)
Granulocyte Cationic Proteins ([1]; Athletes): 1.1 ± 0.04
IgA ([1]; Athletes): 1.8 ± 0.1 mg/mL
IgA % Normal Value ([1]; Athletes): (138%)
IgG ([1]; Athletes): 10.2 ± 0.6 mg/mL
IgG % Normal Value ([1]; Athletes): (84%)
IgM ([1]; Athletes): 1.1 ± 0.07 mg/mL
IgM % Normal Value ([1]; Athletes): (100%)
Leukocytes ([1]; Athletes): 6.1 ± 0.2 ×10^9/L
Leukocytes % Normal Value ([1]; Athletes): (109%)
Leukocytes, Ratio Post-Treat/Pre-Treat Value ([1]; Athletes): (1.09)
Lymphocytes ([1]; Athletes): 2.22 ± 0.1 ×10^9/L
Lymphocytes % Normal Value ([1]; Athletes): (104%)
Lymphocytes, % ([1]; Athletes): 34.9 ± 4.7%
Monocytes ([1]; Athletes): 0.59 ± 0.05 ×10^9/L
Monocytes, % ([1]; Athletes): 9.4 ± 0.5%
Monocytes, % Normal Value ([1]; Athletes): (137%)
Neutrophils ([1]; Athletes): 3.01 ± 0.2 ×10^9/L
Neutrophils, % ([1]; Athletes): 49.0 ± 1.5%
Neutrophils, % Normal Value ([1]; Athletes): (115%)
Phagocytosis (yeast) ([1]; Athletes): 73.3 ± 1.5
Salivary IgM ([1]; Athletes): 0.65 g/L
Salivary Lysozyme ([1]; Athletes): 68.7 ± 1.3 %
Salivary Secretory IgA ([1]; Athletes): 0.056 ± 0.004 g/L
Serum Lysozyme ([1]; Athletes): 60.2 ± 1.6%
Serum β-Lysin ([1]; Athletes): 57.6 ± 3.2 %
T-Lymphocytes ([1]; Athletes): 1.55 ± 0.08 ×10^9/L
T-Lymphocytes % Normal Value ([1]; Athletes): (108%)
T-Lymphocytes (%) ([1]; Athletes): 70.8 ± 1.4 %
T-helper (CD4+) ([1]; Athletes): 1.25 ± 0.07 ×10^9/L
T-helper (CD4+), % ([1]; Athletes): 56.1 ± 1.3 %
T-helper (CD4+), % Normal Value ([1]; Athletes): (112%)
T-suppressor (CD8+) ([1]; Athletes): 0.12 ± 0.02 ×10^9/L
T-suppressor (CD8+), % ([1]; Athletes): 5.9 ± 0.7%
T-suppressor (CD8+), % Normal Value ([1]; Athletes): (86%)
Total Salivary IgA ([1]; Athletes): 0.55 ± 0.05 g/L
B-Lymphocytes ([1]; Controls): 0.41 ± 0.05 ×10^9/L
B-Lymphocytes % Normal Value ([1]; Controls): (85%)
B-Lymphocytes (%) ([1]; Controls): 20.1 ± 1.5%
Blasts w/Con-A ([1]; Controls): 66.8 ± 4.0 %
Blasts w/PHA ([1]; Controls): 34.1 ± 3.1%
C3 ([1]; Controls): 0.7 ± 0.03 g/L
Eosinophils ([1]; Controls): 0.22 ± 0.07 ×10^9/L
Eosinophils (%) ([1]; Controls): 4.0 ± 0.8%
Eosinophils, % Normal Value ([1]; Controls): (85%)
Granulocyte Cationic Proteins ([1]; Controls): 1.22 ± 0.1
IgA ([1]; Controls): 1.8 ± 0.2 mg/mL
IgA % Normal Value ([1]; Controls): (100%)
IgG ([1]; Controls): 12.6 ± 0.7 mg/mL
IgG % Normal Value ([1]; Controls): (104%)
IgM ([1]; Controls): 1.0 ± 0.02 mg/mL
IgM % Normal Value ([1]; Controls): (77%)
Leukocytes ([1]; Controls): 5.6 ± 0.4 ×10^9/L
Leukocytes % Normal Value ([1]; Controls): (97%)
Leukocytes, Ratio Post-Treat/Pre-Treat Value ([1]; Controls): (0.85)
Lymphocytes ([1]; Controls): 2.08 ± 0.2 ×10^9/L
Lymphocytes % Normal Value ([1]; Controls): (99%)
Lymphocytes, % ([1]; Controls): 37.8 ± 2.9%
Monocytes ([1]; Controls): 0.58 ± 0.07 ×10^9/L
Monocytes, % ([1]; Controls): 10.6 ± 1.2%
Monocytes, % Normal Value ([1]; Controls): (88%)
Neutrophils ([1]; Controls): 2.67 ± 0.3 ×10^9/L
Neutrophils, % ([1]; Controls): 47.5 ± 2.9%
Neutrophils, % Normal Value ([1]; Controls): (75%)
Phagocytosis (yeast) ([1]; Controls): 75.0 ± 1.7
Salivary IgM ([1]; Controls): 0.73 g/L
Salivary Lysozyme ([1]; Controls): 63.5 ± 3.0%
Salivary Secretory IgA ([1]; Controls): 0.066 ± 0.009 g/L
Serum Lysozyme ([1]; Controls): 50.6 ± 1.4 %
Serum β-Lysin ([1]; Controls): 46.8 ± 5.4%
T-Lymphocytes ([1]; Controls): 1.56 ± 0.1 ×10^9/L
T-Lymphocytes % Normal Value ([1]; Controls): (108%)
T-Lymphocytes (%) ([1]; Controls): 73.9 ± 1.7%
T-helper (CD4+) ([1]; Controls): 1.36 ± 0.2 ×10^9/L
T-helper (CD4+), % ([1]; Controls): 65.6 ± 2.0 %
T-helper (CD4+), % Normal Value ([1]; Controls): (136%)
T-suppressor (CD8+) ([1]; Controls): 0.08 ± 0.05 ×10^9/L
T-suppressor (CD8+), % ([1]; Controls): 4.8 ± 1.0%
T-suppressor (CD8+), % Normal Value ([1]; Controls): (100%)
Total Salivary IgA ([1]; Controls): 0.48 ± 0.1 g/L
Incidence of infection ([1]; athletes treated, two month period): 24.7%
Reduction of the rate of upper respiratory infections and illness ([1]; vs controls): 4 fold
Patients with “good response” ([2]; Group 1, parabulbar): 9
Patients with “marked favorable response” ([2]; Group 1, parabulbar): 9
Patients with “good response” ([2]; Group 2, instillation): 2
Patients with “marked favorable response” ([2]; Group 2, instillation): 18
Laboratory effects ([2]; in vivo): increase in the number of circulating peripheral blood B- and T-lymphocytes
Patients with “poor response” ([2]; in vivo): 3
Subjects in whom treatment was found effective ([2]; infectious eye diseases): 66.7%
Patients with marked positive response ([2]; infectious eye diseases, parabulbar introduction): 75%
Patients with good response ([2]; instillation): 10%
Patients with marked positive response ([2]; instillation): 90%
Faster recovery than control group, adenoviral conjunctivitis ([2]; marked responses): 10 to 13 days
Rise in visual acuity, chronic serous-plastic uveitis ([2]; marked responses): > 0.1
Patients with good response ([2]; parabulbar introduction): 15%

Reference: US6368788B1 (priority 1987, dated 2002)
